Reference: patent US9475802B2, “Inhibitors of viral replication, their process of preparation and their therapeutical uses” (LABORATOIRE BIODIM, priority 2012, dated 2016)

These compounds were tested on NL4-3 strain of HIV-1 (assay: Inhibition of HIV replication: cyto-protection in Cell-Titer-Glo viability assay, MT4 cells infected with NL4-3 virus). Conditions: Human immunodeficiency virus 1, NL43, 120 h, concentration leading to 50% of cyto-protection, 5 days incubation, CellTiter-Glo luminescence.
Format: cell-based
Experimental: The antiviral activity, particularly against HIV, of compounds according to the invention is evaluated by the protocol described below.
Preparation of Virus Stock of the NL4-3 Strain of HIV-1 (Adachi et al, J Virol, 1986, 59(2):284-91).
The virus was prepared as described in Lopez et al (Lopez et al, Proc Natl Acad Sci USA., 2006, 103(40):14947-52, by transfecting 2×10^6 293 T cells (CRL-1573, ATCC) with following modifications: 6 μg of NL4-3 proviral DNA molecular clone were mixed with Fugene 6 transfection reagent from Roche, and used according to manufacturer's instructions. Forty eight hours later, transfected cell supernatants were harvested, filtered through 0.45-μm-pore-size filters, quantified for HIV-1 p24 antigen by using a Innotest HIV antigen mAb assay (Ingen) according to manufacturer's instructions, and used in infection experiments.
Serial dilutions of compounds to be tested were prepared in complete RPMI medium from 10 mM DMSO stock solutions, and distributed in a volume of 20 μL in 96 well Falcon 353072 Microtest™ tissue culture plate, in order to get 0.5% DMSO final concentration in each well, after the addition of infected cells. Control wells contained also 0.5% DMSO final concentration but no compound.
MT^4 cells (from the NIH AIDS Research and Reference Reagent Program) in RPMI complete medium were counted (10×10^6 cells per well in Falcon 353047 Multiwell™ 24 well) and infected for 2 hours at 37°, at a multiplicity of infection (moi) of 0.0001-0.00001. Cells were then centrifuged 3 min at 3000 rpm, and washed two times in 1 ml PBS to remove viruses that have not entered in cells. Infected cells were resuspended in complete RPMI at 1.25×10^6 cells/ml, and 80 μl of infected cells were distributed in each well containing compounds to be tested or control wells. The plates were then incubated at 37° for 5 days.
Assay Used to Measure the Inhibition of HIV Replication by the Compounds (According to (According to Gregg S. Jones et al., Antimicrobial Agents and Chemotherapy, 2009, 53 (3): 1194-1203).
After 5 days of incubation, 50 μl of CellTiter-Glo reagent (Promega Biosciences, Inc., Madison Wis., USA) were added to each well. Cell lysis was carried out at room temperature during 10 min, 150 μl of lysates were transferred in Packard Optiplate 96 well, and luminescence was read on a Fluoroskan (Thermo Scientific).
The EC50, or effective concentration 50, is the concentration of compound leading to 50% of cyto-protection in a Cell-Titer-Glo® viability assay based on MT^4 cells infected with NL4-3 virus (table 1).

Point of comparison: `CC(C)(C)OC(C(=O)O)c1c(C(F)(F)F)ccc(-c2cccc(C(N)=O)c2)c1-c1ccc2c(c1)CCCO2` (stereo not shown) [Example 14, 2-(tert-butoxy)-2-[3-(3-carbamoylphenyl)-2-(3,4-dihydro-2H-1-benzopyran-6-yl)-6-(trifluoromethyl)phenyl]acetic acid], EC50 0.78 µM. Against it:
- CC1(C)CC=C(c2c(-c3ccncc3)ccc(C(F)(F)F)c2C(OC(C)(C)C)C(=O)O)CC1 (stereo not shown) [Example 11, 2-(tert-butoxy)-2-[2-(4,4-dimethylcyclohex-1-en-1-yl)-3-(pyridin-4-yl)-6-(trifluoromethyl)phenyl]acetic acid] — within 1.5-fold, 0.91 µM
- Cn1cc(-c2ccc(C(F)(F)F)c(C(OC(C)(C)C)C(=O)O)c2C2=CCC(C)(C)CC2)cn1 (stereo not shown) [Example 15, 2-(tert-butoxy)-2-[2-(4,4-dimethylcyclohex-1-en-1-yl)-3-(1-methyl-1H-pyrazol-4-yl)-6-(trifluoromethyl)phenyl]acetic acid] — 5.2-fold lower, 0.15 µM
- CC(=O)Nc1cccc(-c2ccc(C(F)(F)F)c(C(OC(C)(C)C)C(=O)O)c2-c2ccc3c(c2)CCCO3)c1 (stereo not shown) [Example 24, 2-(tert-butoxy)-2-[3-(3-acetamidophenyl)-2-(3,4-dihydro-2H-1-benzopyran-6-yl)-6-(trifluoromethyl)phenyl]acetic acid] — 2.7-fold lower, 0.29 µM
- Cn1cc(-c2ccc(C(F)(F)F)c(C(OC(C)(C)C)C(=O)O)c2-c2ccc3c(c2)CCCO3)cn1 (stereo not shown) [Example 4, 2-(tert-butoxy)-2-[2-(3,4-dihydro-2H-1-benzopyran-6-yl)-3-(1-methyl-1H-pyrazol-4-yl)-6-(trifluoromethyl)phenyl]acetic acid] — 6.5-fold lower, 0.12 µM
- CC(C)(C)OC(C(=O)O)c1c(C(F)(F)F)ccc(-n2ccc(-c3ccccc3)n2)c1-c1ccc2c(c1)CCCO2 (stereo not shown) [Example 5, 2-(tert-butoxy)-2-[2-(3,4-dihydro-2H-1-benzopyran-6-yl)-3-(3-phenyl-1H-pyrazol-1-yl)-6-(trifluoromethyl)phenyl]acetic acid] — within 1.5-fold, 0.76 µM
- CC(C)(C)OC(C(=O)O)c1c(C(F)(F)F)ccc(-c2cccn(CC3CCC3)c2=O)c1-c1ccc2c(c1)CCCO2 (stereo not shown) [Example 38, 2-(tert-butoxy)-2-{3-[1-(cyclobutylmethyl)-2-oxo-1,2-dihydropyridin-3-yl]-2-(3,4-dihydro-2H-1-benzopyran-6-yl)-6-(trifluoromethyl)phenyl}acetic acid] — 6-fold lower, 0.13 µM
- CC(C)(C)OC(C(=O)O)c1c(C(F)(F)F)ccc(-c2cccs2)c1-c1ccc2c(c1)CCCO2 (stereo not shown) [Example 7, 2-(tert-butoxy)-2-[2-(3,4-dihydro-2H-1-benzopyran-6-yl)-3-(thiophen-2-yl)-6-(trifluoromethyl)phenyl]acetic acid] — 2.6-fold lower, 0.3 µM
- CC(C)(C)OC(C(=O)O)c1c(C(F)(F)F)ccc(-n2cc(Br)cn2)c1-c1ccc2c(c1)CCCO2 (stereo not shown) [Example 9, 2-[3-(4-bromo-1H-pyrazol-1-yl)-2-(3,4-dihydro-2H-1-benzopyran-6-yl)-6-(trifluoromethyl)phenyl]-2-(tert-butoxy)acetic acid] — 2.2-fold lower, 0.36 µM
- CC(C)(C)OC(C(=O)O)c1c(C(F)(F)F)ccc(-c2ccc(=O)n(CC3CC3)c2)c1-c1ccc2c(c1)CCCO2 (stereo not shown) [Example 27, 2-(tert-butoxy)-2-{3-[1-(cyclopropylmethyl)-6-oxo-1,6-dihydropyridin-3-yl]-2-(3,4-dihydro-2H-1-benzopyran-6-yl)-6-(trifluoromethyl)phenyl}acetic acid] — 9.9-fold lower, 0.079 µM
